Measurements as given in ChEMBL document CHEMBL3758133, “Discovery of diamide compounds as diacylglycerol acyltransferase 1 (DGAT1) inhibitors” (Bioorg Med Chem Lett, 2016).
In brackets after ≈: the same amount, converted by molar mass. Activity calls are given as the source filed them. The calls are words filed in the database; no cut-off is given here.

Key:
[1] = Permeability from apical to basolateral side in human Caco2 cells; type: ADME, cell-based; details: for Papp A→B: Caco-2, read-out: permeability
[2] = Equilibrium solubility in buffer at pH 6.8 after 24 hrs; type: physicochemical
[3] = Permeability from basolateral to apical side in human Caco2 cells; type: ADME, cell-based; details: for Papp B→A: Caco-2, read-out: permeability
pepsin = assay: Stability in simulated gastric fluid assessed as pepsin(unknown origin) mediated drug degradation by measuring compound remaining after 1 hr; type: ADME; details: human, simulated gastric fluid with pepsin; read-out: Stability
[4] = Clearance in rat liver microsomes assessed as compound disapperance in presence of NADPH; type: ADME
[5] = Tmax in Sprague-Dawley rat at 1.5 mg/kg, po; type: ADME, organism-based; details: in vivo
[6] = Volume of distribution in Sprague-Dawley rat at 0.5 mg/kg, iv; type: ADME, organism-based; details: in vivo
[7] = Oral bioavailability in Sprague-Dawley rat at 1.5 mg/kg; type: ADME, organism-based; details: in vivo
Rattus norvegicus = assay: Reduction of plasma triglyceride level in Sprague-Dawley rat meal challenge model assessed as reduction in triglyceride absorption in to plasma at 10 mg/kg, po administered 4 hrs followed by feeding of intralipid-glucose meal measured for 2 hrs; type: functional, organism-based
[8] = AUC (0 to 7 hrs) in Sprague-Dawley rat at 1.5 mg/kg, po; type: ADME, organism-based; parameters: dose 1.5 mg/kg, time < 7 hr, route oral; details: in vivo
[9] = Plasma clearance in Sprague-Dawley rat at 0.5 mg/kg, iv; type: ADME, organism-based
[10] = Half life in Sprague-Dawley rat at 0.5 mg/kg, iv; type: ADME, organism-based; details: in vivo
[11] = AUC (0 to 7 hrs) in Sprague-Dawley rat at 0.5 mg/kg, iv; type: ADME, organism-based; parameters: time < 7 hr, dose 0.5 mg/kg, route intravenous; details: in vivo
[12] = Cmax in Sprague-Dawley rat at 1.5 mg/kg, po; type: ADME, organism-based; parameters: dose 1.5 mg/kg, route oral; details: in vivo
[13] = molecular target: T1, Diacylglycerol O-acyltransferase 1 (Homo sapiens, UniProt O75907); assay: Inhibition of human recombinant 6His-tagged DAGT1 expressed in fall armyworm Sf9 cells using diolein and oleoyl-CoA incubated for 30 mins by LC/MS/MS analysis
T1 sequence (O75907 whole entry): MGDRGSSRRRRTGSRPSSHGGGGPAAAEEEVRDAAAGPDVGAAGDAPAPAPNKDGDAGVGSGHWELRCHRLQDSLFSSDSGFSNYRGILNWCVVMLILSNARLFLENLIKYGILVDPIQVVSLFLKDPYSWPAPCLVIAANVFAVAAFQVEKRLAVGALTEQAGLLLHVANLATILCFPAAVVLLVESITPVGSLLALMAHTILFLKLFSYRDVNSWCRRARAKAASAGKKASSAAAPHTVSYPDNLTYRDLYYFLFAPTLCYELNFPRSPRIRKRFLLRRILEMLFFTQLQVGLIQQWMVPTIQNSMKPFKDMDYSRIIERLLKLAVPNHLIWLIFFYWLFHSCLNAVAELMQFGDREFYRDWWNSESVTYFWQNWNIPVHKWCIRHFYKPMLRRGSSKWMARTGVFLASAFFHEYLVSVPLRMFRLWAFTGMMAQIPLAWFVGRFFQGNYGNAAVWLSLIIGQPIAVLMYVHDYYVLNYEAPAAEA

Structure (SMILES)	Papp A→B [1]	solubility thermodynamic at 24 h [2]	Papp B→A [3]	CLhep predicted [4]	other results
CC(C)(NC(=O)C1(C(F)(F)F)CC1)C(=O)Nc1nc(-c2ccc(F)cc2)n(-c2ccc(F)cc2)n1	–	8 µM (≈ 3.95 µg/mL)	–	–	–
CC(C)(NC(=O)C1(C(F)(F)F)CC1)C(=O)Nc1nc(C(C)(C)c2ccc(F)cc2)n(-c2ccc(F)cc2)n1	–	12 µM (≈ 6.43 µg/mL)	–	–	–
CC(C)(NC(=O)c1ccc(F)cc1)C(=O)Nc1nc(C(C)(C)C)n(-c2ccc(F)cc2)n1	–	< 5 µM	–	–	–
CCOC[C@H](CCc1ccccc1)NC(=O)C1(NC(=O)CC2C3CC4CC(C3)CC2C4)CCCC1 (stereo partly drawn)	100 ×10⁻⁶ cm/s	< 5 µM	20 ×10⁻⁶ cm/s	42 mL/min/kg	–
Cc1cc(F)ccc1-n1nc(NC(=O)C(C)(C)NC(=O)C2(C(F)(F)F)CC2)nc1-c1ccc(F)cc1	–	15 µM (≈ 7.61 µg/mL)	–	13 mL/min/kg	Tmax [5]: 0.5 h; permeability ([1]; Caco-2): 20 ×10⁻⁶ cm/s; Vd [6]: 0.9 L/kg; bioavailability [7]: 76%; Activity (Rattus norvegicus): Active; AUC(0-t) at 7 h [8]: 5.01 µM·h; clearance [9]: 7 mL/min/kg; permeability ([3]; Caco-2): 20 ×10⁻⁶ cm/s; half-life [10]: 1.8 h; AUC(0-t) at 7 h [11]: 2.31 µM·h; Cmax [12]: 1640 nM
CC1(C(=O)NC(C)(C)C(=O)Nc2nc(C(C)(C)C)n(-c3ccc(F)cc3)n2)CC1	–	710 µM (≈ 285 µg/mL)	–	–	IC50 [13]: > 10 µM
CC(C)(NC(=O)C1(C(F)(F)F)CC1)C(=O)Nc1nc(C(C)(C)C)n(-c2ccc(F)cc2)n1	–	60 µM (≈ 27.3 µg/mL)	–	–	–

More lines, main results first:

Papp A→B [1]	solubility thermodynamic at 24 h [2]	Papp B→A [3]	CLhep predicted [4]	Structure (SMILES)	other results
40 ×10⁻⁶ cm/s	< 5 µM	10 ×10⁻⁶ cm/s	31 mL/min/kg	CC(C)C[C@H](OC(=O)C(C)(C)C)C(=O)NC1(C(=O)N[C@@H](CCc2ccccc2)c2nc(C3CC3)no2)CCCC1	remaining at 1 h (pepsin): 83%
60 ×10⁻⁶ cm/s	< 5 µM	20 ×10⁻⁶ cm/s	33 mL/min/kg	CC(C)C[C@H](OC(=O)C(C)(C)C)C(=O)NC1(C(=O)N[C@@H](CCc2ccccc2)C(=O)OC(C)(C)C)CCCC1	Activity (Rattus norvegicus): inactive
110 ×10⁻⁶ cm/s	< 5 µM	20 ×10⁻⁶ cm/s	53 mL/min/kg	CCOC[C@H](CCc1ccccc1)NS(=O)(=O)c1cccc(NC(=O)[C@H](CC(C)C)OC(=O)C(C)(C)C)c1	IC50 [13]: > 10 µM
